Assay results from patent US11891623B2, “Generation of neural stem cells from human trophoblast stem cells” (Accelerated BioSciences Corp., priority 2010, dated 2024).

Tests used:
[1] = system: intracellular calcium in hTS cells; experiment: Real-time live cell calcium imaging in RA-treated hTS cells; type: cell-based, human
Experimental: FIGS. 21a-21n illustrate activation of Gαq/11 signaling pathway: (21a) illustrates expressions of Gαq/11 pathway-related components after RA treatment (10 μM) over time by Western blots; (21b) illustrates real-time live cell imaging microscopy (Cell-R system, Olympus, Tokyo) in hTS cells which were cultured in the calcium-free medium and pre-loaded with Fluo4 (1 μM) in BSS buffer 20 min before RA treatment. […] (c) After depletion of ER calcium, KCl (60 mM) enabled to activate L-type calcium channels.

Huh-7 cells = experiment: BBP-induced signaling in Huh-7 cells (RT-PCR, Western blot, immunofluorescence); type: cell-based, human
Experimental: Huh-7 cells (3×10^5) were seeded into a 6-well dish and incubated for 24 h. Cells cultured serum-free medium overnight were treated with BBP (1 μM) for various time intervals. After BBP stimulation, cells were washed twice with PBS. Total RNAs were extracted by TRIzol methods (Invitrogen). RNA (2 μg) was used to synthesize cDNA by Reverse Transcription System (Promega). The c-DNAs were amplified by the specific primers. The primer pairs were designed as follows: AhR, forward 5′-TACTCTGCCGCCCAAACTGG-3′ (SEQ ID NO:49), reverse 5′-GCTCTGCAACCTCCGATTCC-3′ (SEQ ID NO:50); β-actin, forward 5′-CTC GCT GTC CAC CTT CCA-3′ (SEQ ID NO:51), reverse 5′-GCT GTC ACC TTC ACC GTTC-3′ (SEQ ID NO:52). PCR conditions were set at 95° C. for 5 min and 95° C. for 30 sec, 54° C. for 30 sec, 72° C. for 1 min followed by 72° C. for 10 min (36 cycles). The products were separated by 2% agarose gels and visualized by ethidium bromide.
Huh-7 cells (1×10^6) were seeded into 10 cm dish and cultured overnight. The culture medium was changed to serum-free medium for another night. Cells were treated with BBP (1 μM) for various time intervals. […] Cells were then washed twice with ice-cold PBS and lysed by RIPA lysis buffer (Minipore). Protein concentration was measured by BCA protein assay kit (Thermo). Equal amounts of protein (30 μg protein) were resolved by 8% SDS-PAGE, transferred onto PVDF membrane, and blocked with 5% non-fat dry milk for 1 h at room temperature. After blocking, the membrane was incubated with the primary antibodies including AhR (1:1000), Cox-2 (1:1000), Gαq/11 (1:100), Gβ (1:100), β-actin (1:5000), p44/42 MAP kinase (1:1000) or phospho-p44/42 MAP kinase (1:1000) overnight at 4° C. Cells were washed three times with PBST and then incubated with HRP conjugated secondary antibodies for 1 h at room temperature. After washing, the blot was visualized using an enhanced chemiluminescence kit (ECL) (Amersham).
Cells with or without transfection by AhR siRNA were cultured and treated with BBP (1 μM) for 5 and 15 min each. After treatment with primary and secondary antibodies for AhR and Gαq/11, cells were subjected to confocal immunofluorescence microscopy to analyze the dynamic movement in the cell compartments.

[2] = system: intracellular calcium in Huh-7 cells; experiment: Real-time live cell calcium imaging in BBP-treated Huh-7 cells; type: cell-based, human
Experimental: Cells were pre-treated with Fluo-4 (1 μM), a Ca^2+-specific dye, in BSS buffer at 37° C. for 20 min before treatment with BBP (1 μM). Measurements of relative intracellular calcium intensity were performed by real-time cell imaging microscopy and analyzed by Cell-R software system (Olympus).

IP3R = conditions: pretreatment with 2-APB
AhR = experiment: TIRF microscopy of GFP-tagged AhR at the plasma membrane in Huh-7 cells; type: cell-based, human; conditions: BBP 1 μM
Source text: Immunofluorescence studies are considered important for the dynamic study of signal transduction through their ability to capture snapshots of molecular changes in the cell. Human hepatic Huh-7 cancer cells were pre-transfected with pGFP-C1-AhR by using LT1 transfection reagent (Minis Bio LLC, WI) and total internal reflection fluorescence microscopy to selectively observe the molecular events in the cytoplasmic region immediately beneath the plasma membrane. When BBP was introduced, a rapid but transient recruitment and translocation of the GFP-tagged AhR occurred at the subcellular membrane regions, showing a fast elevation and peaking in 115 seconds followed by a gradual decrease in AhR that occurred over a few minutes (FIG. 14a). This fast, dynamic movement of the memAhR at the subcellular membrane is reminiscent of the notion of soft-wired signal transduction.
Huh-7 cells were pre-transfected with pGFP-C1-AhR (a gift of H. Li) by using LT1 transfection reagent (Minis Bio LLC, Madison, WI) for 24 h. For TIRF microscopy, cells were cultured in serum-free medium on cover-slip overnight followed by stimulation by BBP (1 μM, Sigma). The dynamic activities of GFP-tagged AhR at the cell membrane were observed and analyzed by using Zeiss TIRF microscope with Axio Vision Rel. 4.8 software.

CaMKII = CaMKII inhibitor effect on eIF4B expression (Western blots); type: cell-based, human; conditions: KN93 1 μM, 2 hr
Experimental: FIGS. 21a-21n illustrate activation of Gαq/11 signaling pathway: (21a) illustrates expressions of Gαq/11 pathway-related components after RA treatment (10 μM) over time by Western blots; (21b) illustrates real-time live cell imaging microscopy (Cell-R system, Olympus, Tokyo) in hTS cells which were cultured in the calcium-free medium and pre-loaded with Fluo4 (1 μM) in BSS buffer 20 min before RA treatment. (a) The RA-induced depletion of intracellular calcium was rescued by adding CaCl2 (2 mM) with a SOCE pattern. […] (c) After depletion of ER calcium, KCl (60 mM) enabled to activate L-type calcium channels.
The transient CaMKII bound and activated eukaryotic initiation factor 4B (eIF4B) (FIG. 21c) to initiate mRNA translation machinery via a cap-independent mechanism.

hTS cells [3] = experiment: RA-induced differentiation of hTS cells; type: cell-based, human
Experimental: In another embodiment, a similar ratio in distribution of mixed RA-induced neural progenitors results over 1 to 5-day RA-induction periods. In another embodiment, the cell differentiation becomes undefined trophoblast giant cells over a 7-day RA treatment.
Cells were cultured in conditioned α-MEM containing 20% FBS, 1% penicillin-streptomycin, and 10 μg/ml bFGF (CytoLab Ltd, Rehovot, Israel) at 37° C. in 5% CO2. The medium was refreshed every 3 days in general. After 5 passages of culture, cell differentiations into a variety of specific cell phenotypes were performed by various strategies as shown in the Table in FIG. 12. For osteogenic differentiation, cytochemical mineral matrix was analyzed using an Alizarin red S assay (Sigma-Aldrich, St. Louis, MO) to detect the calcium mineral content. To identify the calcium deposits, cells were fixed and incubated with 2% silver nitrate solution (w/v) for 10 min in dark followed by thorough wash with de-ionized water and exposed under bright light for 15 min. Cells were treated with […] to detect alkaline phosphatase activity using a commercial kit (Sigma-Aldrich, St. Louis, MO). Chondrogenic differentiation was confirmed using Alcian blue staining (Sigma-Aldrich, St. Louis, MO) at an acidic pH level. […]

hTS cells [4] = experiment: RA-induced protein/mRNA expression over time in hTS cells (Western blots, RT-PCR, flow cytometry); type: cell-based, human
Experimental: For RT-PCR, total RNA from 10^5-10^6 cells was extracted by using TRIZOL reagent (Invitrogen) and mRNA expression by using a Ready-To-Go RT-PCR Beads kit (Amersham Biosciences, Buckinghamshire, UK). Briefly, the reaction products were resolved on 1.5% agarose gel and visualized with ethidium bromide. β-actin or β-2 microglobulin was used as a positive control. All experiments were performed in triplicate. For qPCR, gene expression was measured with the iQ5 Real-Time PCR Detection System (Bio-Rad Laboratories) and analyzed with Bio-Rad iQ5 Optical System Software, version 2.0 (Bio-Rad Laboratories). Relative mRNA levels were calculated using the comparative Ct method (Bio-Rad, instruction manual) and presented as a ratio to biological controls. All primer pairs were confirmed to approximately double the amount of product within one cycle and to yield a single product of the predicted size.
Cells were seeded into 10 cm dish with the serum-free medium for overnight and treated with or without RA (10 μM) for various time intervals as indicated. After stimulation, cells were washed twice with ice-cold PBS and lysed by RIPA lysis buffer (Minipore). Protein concentration was determined by BCA protein assay kit (Thermo). Equal amounts of protein (30 μg) were resolved by 8% SDS-PAGE, transferred onto PVDF membrane and blocked with 5% non-fat dry milk for 1 h at room temperature. After blocking, the membrane was incubated with primary antibodies for 4 h at 4° C. Cells were washed three times with PBST and then incubated with HRP conjugated secondary antibodies for 1 h at room temperature. After washing six times with PBST buffer, the membrane was incubated with a chemiluminescent substrate (GE Healthcare) for 1 min. Specific bands were visualized using an enhanced chemiluminescence kit (ECL) (Amersham).
hTS cells obtained from the preimplantation embryos in women with early tubal ectopic pregnancy were described previously. Adherent hTS cells were cultured in conditioned α-MEM containing 10 μg/ml bFGF (JRH, Biosciences, San Jose, CA), 10% FBS, and 1% penicillin-streptomycin at 37° C. in 5% CO2. Cells were treated by RA (10 μM) for various time intervals depending on the experiments.

[5] = system: protein kinase C (PKC) pathway; conditions: cited from earlier work
hTS cells [6] = experiment: RA effect on Nanog, Oct4, Sox2, Cdx2 expression in hTS cells (flow cytometry)

NCCOB(c1ccccc1)c1ccccc1 [2-APB, 2-aminoethoxydiphenyl borate]
RA-induced ER calcium release ([1]; 2-APB, dose-dependent): inhibited | BBP-induced COX-2 production (Huh-7 cells): blocked | BBP-elicited intracellular calcium levels ([2]; 2-APB at various concentrations): dose-dependently inhibit | Calcineurin, NFAT1, and MEF2A expression (IP3R): inhibited

CCCCOC(=O)c1ccccc1C(=O)OCc1ccccc1 [BBP, Benzyl butyl phthalate]
time to peak of GFP-tagged AhR recruitment at subcellular membrane (AhR): 115 s | time of COX-2 production (Huh-7 cells; BBP 1 μM): 15 min | time of induction of AhR mRNA expression (Huh-7 cells; BBP 1 μM, RT-PCR): 5 min | time of peak AhR mRNA expression (Huh-7 cells; BBP 1 μM, RT-PCR): 15 min | time of Gαq/11 and Gβ production (Huh-7 cells; BBP 1 μM, Western blot): 30 min | time of elevation in AhR production (Huh-7 cells; BBP 1 μM, Western blot): 15 min | ARNT expression (Huh-7 cells; BBP 1 μM, overnight): significantly inhibited | time of ERK1/2 phosphorylation (Huh-7 cells; BBP 1 μM, dephosphorylated at 30 min): 15 min | intracellular calcium response ([2]; BBP 1 μM, calcium free medium): release of intracellular calcium

COc1ccc(S(=O)(=O)N(CCO)c2ccccc2CN(C)C/C=C/c2ccc(Cl)cc2)cc1 [KN93]
eIF4B expression (CaMKII): inhibited

CC1=C(/C=C/C(C)=C/C=C/C(C)=C/C(=O)O)C(C)(C)CCC1 [RA, all-trans retinoic acid]
differentiation of hTS cells into neural cell phenotypes (hTS cells [3]; RA 10 μM, 1 to 7 days): induces hTS cells differentiation into a variety of phenotypical neural cells | giant cell formation (hTS cells [3]; treatment with all-trans retinoic acid): resulted in a formation of giant cells | time of peak c-Src mRNA expression (hTS cells [4]; RA 10 μM, RT-PCR): 15 min | time of transient elevation of RXRα mRNA and RARβ mRNA (hTS cells [4]; RA 10 μM, RT-PCR): 15 min | time of production of c-Src protein (hTS cells [4]; RA 10 μM, Western blot): 1 h | Wnt2B and FRAT1 expression (hTS cells [4]; RA 4 hr and 24 hr incubation, Western blots): significantly upregulated | GSK3β activity state (hTS cells [4]; RA 4 hr vs overnight, flow cytometry): initially activated in 4 hr but transited into inhibitory later | Fzd6 mRNA expression (hTS cells [4]; RA, RT-PCR): overexpression | calcineurin production (hTS cells [4]; RA, Western blot): induced production | time of CaMKII activation (hTS cells [4]; RA, Western blot): 1 to 2 h | time of HDAC6 elevation (hTS cells [4]; RA, Western blot): 2 h | time of Nanog production (hTS cells [4]; RA, Western blot): 4 h | time of RARβ production (hTS cells [4]; RA, Western blots): 4 h | time of c-Src expression (hTS cells [4]; RA, Western blots): 5 min | time of production of Gαq/11 and Gβ (hTS cells [4]; RA, Western blots): 30 min | time of transient Akt3 activation (hTS cells [4]; RA, Western blots): 1 h | β-catenin activation (hTS cells [4]; RA, between 30 min and 24 hr, Western blots): significantly activated | time of mTOR phosphorylation at serine 2448 (hTS cells [4]; RA, disappeared after 24 hr): 4 h | time of peak eIF4B production (hTS cells [4]; RA, fading away at 24 hr): 4 h | intracellular Ca2+ response ([1]; RA, calcium-free medium, Fluo4): transiently intracellular Ca^2+ release | time of translocation of PKC-γ [5]: ≤ 5 min | increase in intracellular diacylglycerol (DG) ([5]; transient, at 2 min): 1.3 fold | effect on expression of Nanog, Oct4, Sox2, Cdx2 (hTS cells [6]; RA one day): promoted expressions of Nanog, Oct4 and Sox2 but not Cdx2 | Nanog expression (hTS cells [6]; RA-induced cells (10 μM, 1 day)): 26.9%
